Experimental data reported in US20250368608A1, “SELECTIVE HDAC6 INHIBITOR” (ROYAL COLLEGE OF SURGEONS IN IRELAND, priority 2021, published 2025).

tested on: JJN3 cell line; test: Apoptosis assay using JJN3 cell line (annexin V/PI); type: cell-based; conditions: Homo sapiens, JJN-3; JJN3 cell line, 24 h of treatment
Method: Apoptosis was assessed by Annexin V/propidium iodide (Biolegend, 640906, Sigma P4170) staining using LSRII Biosciences, Facscanto. Cell viability was detected by CellTiter-Glo® (My Bio, G3582) according to the manufacture's protocol. Mitochondrial membrane potential was measured by adding Tetramethylrhodamine, ethyl ester (TMRE) (Biosciences, T669) at 20 nM for 30 minutes at 37° C. and assessed by flow cytometry with FACS CANTO II. […]

Structure (SMILES)	IC50
O=C(CSC1=N[C@@H]2CCCC[C@H]2N1)N1CCOCC1 (racemic) [TTC-01, (±)-trans-2-((2-morpholino-2-oxoethyl)thio)-3a,4,5,6,7,7a-hexahydro-1H-benzo[d]imidazol-3-ium chloride]	> 10 µM
O=C(CSC1=N[C@@H]2CCCC[C@H]2N1)N1CCCCC1 (racemic) [TTC-03, (±)-trans-2-((2-oxo-2-(piperidin-1-yl)ethyl)thio)-3a,4,5,6,7,7a-hexahydro-1H-benzo[d]imidazol-3-ium chloride]	> 10 µM
CCN(CC)C(=O)CSC1=N[C@@H]2CCCC[C@H]2N1 (racemic) [TTC-04, (±)-trans-2-((2-(diethylamino)-2-oxoethyl)thio)-3a,4,5,6,7,7a-hexahydro-1H-benzo[d]imidazol-3-ium chloride]	> 10 µM
O=C(CSC1=N[C@@H]2CCCC[C@H]2N1)N1CCSCC1 (racemic) [TTC-05, (±)-trans-2-((2-oxo-2-thiomorpholinoethyl)thio)-3a,4,5,6,7,7a-hexahydro-1H-benzo[d]imidazol-3-ium chloride]	< 10 µM
CS(=O)(=O)N1CCN(C(=O)CSC2=N[C@@H]3CCCC[C@H]3N2)CC1 (racemic) [TTC-06, (±)-trans-2-((2-(4-(methylsulfonyl)piperazin-1-yl)-2-oxoethyl)thio)-3a,4,5,6,7,7a-hexahydro-1H-benzo[d]imidazol-3-ium chloride]	> 10 µM
O=C(CSC1=N[C@@H]2CCCC[C@H]2N1)N1CCN(c2ccccc2)CC1 (racemic) [TTC-07, (±)-trans-2-((2-oxo-2-(4-phenylpiperazin-1-yl)ethyl)thio)-3a,4,5,6,7,7a-hexahydro-1H-benzo[d]imidazol-3-ium chloride]	> 10 µM
CC(C)(C)OC(=O)N1CCN(C(=O)CSC2=N[C@@H]3CCCC[C@H]3N2)CC1 (racemic) [TTC-08, (±)-trans-2-((2-(4-(tert-butoxycarbonyl)piperazin-1-yl)-2-oxoethyl)thio)-3a,4,5,6,7,7a-hexahydro-1H-benzo[d]imidazol-3-ium chloride]	> 10 µM
O=C(CSC1=N[C@@H]2CCCC[C@H]2N1)N1CCC(O)CC1 (racemic) [TTC-15, (±)-trans-2-((2-(4-hydroxypiperidin-1-yl)-2-oxoethyl)thio)-3a,4,5,6,7,7a-hexahydro-1H-benzo[d]imidazol-3-ium chloride]	> 10 µM
O=C(O)C1CCN(C(=O)CSC2=N[C@@H]3CCCC[C@H]3N2)CC1 (racemic) [TTC-16, (±)-trans-2-((2-(4-carboxypiperidin-1-yl)-2-oxoethyl)thio)-3a,4,5,6,7,7a-hexahydro-1H-benzo[d]imidazol-3-ium chloride]	> 10 µM
O=C1CN(C(=O)CSC2=N[C@@H]3CCCC[C@H]3N2)CCN1 (racemic) [TTC-17, (±)-trans-2-((2-oxo-2-(3-oxopiperazin-1-yl)ethyl)thio)-3a,4,5,6,7,7a-hexahydro-1H-benzo[d]imidazol-3-ium chloride]	> 10 µM
O=C(CSC1=N[C@@H]2CCCC[C@H]2N1)Nc1ccccc1 (racemic) [TTC-18, (±)-trans-2-((2-oxo-2-(phenylamino)ethyl)thio)-3a,4,5,6,7,7a-hexahydro-1H-benzo[d]imidazol-3-ium chloride]	> 10 µM
O=C(CSC1=N[C@@H]2CCCC[C@@H]2N1)N1CCOCC1 [TTC-02, cis-2-((2-morpholino-2-oxoethyl)thio)-3a,4,5,6,7,7a-hexahydro-1H-benzo[d]imidazol-3-ium chloride]	> 10 µM
O=C(CSC1=NCCN1)N1CCOCC1 [TTC-09, 2-((2-morpholino-2-oxoethyl)thio)-4,5-dihydro-1H-imidazol-3-ium chloride]	> 10 µM
O=C(CSC1=N[C@@H]2CCCC[C@@H]2N1)N1CCCCC1 [TTC-10, cis-2-((2-oxo-2-(piperidin-1-yl)ethyl)thio)-3a,4,5,6,7,7a-hexahydro-1H-benzo[d]imidazol-3-ium chloride]	> 10 µM
O=C(CSC1=N[C@@H]2CCCC[C@@H]2N1)N1CCSCC1 [TTC-11, cis-2-((2-oxo-2-thiomorpholinoethyl)thio)-3a,4,5,6,7,7a-hexahydro-1H-benzo[d]imidazol-3-ium chloride]	> 10 µM
CS(=O)(=O)N1CCN(C(=O)CSC2=N[C@@H]3CCCC[C@@H]3N2)CC1 [TTC-12, cis-2-((2-(4-(methylsulfonyl)piperazin-1-yl)-2-oxoethyl)thio)-3a,4,5,6,7,7a-hexahydro-1H-benzo[d]imidazol-3-ium chloride]	> 10 µM
O=C(CSC1=N[C@@H]2CCCC[C@@H]2N1)N1CCN(c2ccccc2)CC1 [TTC-13, cis-2-((2-oxo-2-(4-phenylpiperazin-1-yl)ethyl)thio)-3a,4,5,6,7,7a-hexahydro-1H-benzo[d]imidazol-3-ium chloride]	> 10 µM
O=C(CSC1=N[C@@H]2CCCC[C@H]2N1)N1CCOCC1 [TTC-19, (+)-(3aR,7aR)-2-((2-morpholino-2-oxoethyl)thio)-3a,4,5,6,7,7a-hexahydro-1H-benzo[d]imidazol-3-ium chloride]	> 10 µM
O=C(CSC1=N[C@H]2CCCC[C@@H]2N1)N1CCOCC1 [TTC-20, (−)-(3aS,7aS)-2-((2-morpholino-2-oxoethyl)thio)-3a,4,5,6,7,7a-hexahydro-1H-benzo[d]imidazol-3-ium chloride]	> 10 µM
O=C(CSc1nc2ccccc2[nH]1)N1CCOCC1 [TTC-21, 2-((1H-benzo[d]imidazol-2-yl)thio)-1-morpholinoethan-1-one]	> 10 µM
O=C(CSc1ncc[nH]1)N1CCOCC1 [TTC-22, 2-((1H-imidazol-2-yl)thio)-1-morpholinoethan-1-one]	> 10 µM
O=C(CSc1nc2c([nH]1)CCCC2)N1CCOCC1 [TTC-23, 1-morpholino-2-((4,5,6,7-tetrahydro-1H-benzo[d]imidazol-2-yl)thio)ethan-1-one]	> 10 µM
O=C(CCSC1=N[C@H]2CCCC[C@@H]2N1)N1CCOCC1 [TTC-24, 3-(((3aS,7aS)-3a,4,5,6,7,7a-hexahydro-1H-benzo[d]imidazol-2-yl)thio)-1-morpholinopropan-1-one]	> 10 µM

Results, then the molecule that gave them:

IC50	Structure (SMILES)
> 10 µM	CCC1CCN(C(=O)CSC2=N[C@@H]3CCCC[C@H]3N2)CC1 (racemic) [TTC-28, (±)-trans-2-((2-(4-ethylpiperidin-1-yl)-2-oxoethyl)thio)-3a,4,5,6,7,7a-hexahydro-1H-benzo[d]imidazol-3-ium chloride]
< 10 µM	CCCC1CCN(C(=O)CSC2=N[C@@H]3CCCC[C@H]3N2)CC1 (racemic) [TTC-29, (±)-trans-2-((2-oxo-2-(4-propylpiperidin-1-yl)ethyl)thio)-3a,4,5,6,7,7a-hexahydro-1H-benzo[d]imidazol-3-ium chloride]
> 10 µM	CC(C)C1CCN(C(=O)CSC2=N[C@@H]3CCCC[C@H]3N2)CC1 (racemic) [TTC-30, (±)-trans-2-((2-(4-isopropylpiperidin-1-yl)-2-oxoethyl)thio)-3a,4,5,6,7,7a-hexahydro-1H-benzo[d]imidazol-3-ium chloride]
< 10 µM	CC(C)(C)C1CCN(C(=O)CSC2=N[C@@H]3CCCC[C@H]3N2)CC1 (racemic) [TTC-31, (±)-trans-2-((2-(4-(tert-butyl)piperidin-1-yl)-2-oxoethyl)thio)-3a,4,5,6,7,7a-hexahydro-1H-benzo[d]imidazol-3-ium chloride]
< 10 µM	O=C(CSC1=N[C@@H]2CCCC[C@H]2N1)N1CCC(C(F)(F)F)CC1 (racemic) [TTC-32, (±)-trans-2-((2-oxo-2-(4-(trifluoromethyl)piperidin-1-yl)ethyl)thio)-3a,4,5,6,7,7a-hexahydro-1H-benzo[d]imidazol-3-ium chloride]
> 10 µM	O=C(CSC1=N[C@@H]2CCCC[C@H]2N1)N1CCC(c2ccccc2)CC1 (racemic) [TTC-33, (±)-trans-2-((2-oxo-2-(4-phenylpiperidin-1-yl)ethyl)thio)-3a,4,5,6,7,7a-hexahydro-1H-benzo[d]imidazol-3-ium chloride]
< 10 µM	CC(=O)NCC1CCN(C(=O)CSC2=N[C@@H]3CCCC[C@H]3N2)CC1 (racemic) [TTC-35, (±)-trans-2-((2-(4-(acetamidomethyl)piperidin-1-yl)-2-oxoethyl)thio)-3a,4,5,6,7,7a-hexahydro-1H-benzo[d]imidazol-3-ium chloride]
> 10 µM	Cc1ccccc1N1CCN(C(=O)CSC2=N[C@@H]3CCCC[C@H]3N2)CC1 (racemic) [TTC-36, (±)-trans-2-((2-oxo-2-(4-(o-tolyl)piperazin-1-yl)ethyl)thio)-3a,4,5,6,7,7a-hexahydro-1H-benzo[d]imidazol-3-ium chloride]
> 10 µM	Cc1ccc(N2CCN(C(=O)CSC3=N[C@@H]4CCCC[C@H]4N3)CC2)cc1 (racemic) [TTC-38, (±)-trans-2-((2-oxo-2-(4-(p-tolyl)piperazin-1-yl)ethyl)thio)-3a,4,5,6,7,7a-hexahydro-1H-benzo[d]imidazol-3-ium chloride]
> 10 µM	CC(=O)N1CCN(C(=O)CSC2=N[C@@H]3CCCC[C@H]3N2)CC1 (racemic) [TTC-40, (±)-trans-2-((-(4-acetylpiperazin-1-yl)-2-oxoethyl)thio)-3a,4,5,6,7,7a-hexahydro-1H-benzo[d]imidazol-3-ium chloride]
> 10 µM	O=C(CSC1=N[C@@H]2CCCC[C@H]2N1)N1CCN(C(=O)c2ccccc2)CC1 (racemic) [TTC-41, (±)-trans-2-((2-(4-benzoylpiperazin-1-yl)-2-oxoethyl)thio)-3a,4,5,6,7,7a-hexahydro-1H-benzo[d]imidazol-3-ium chloride]
> 10 µM	O=C(CCCSC1=N[C@H]2CCCC[C@@H]2N1)N1CCOCC1 [TTC-25, 4-(((3aS,7aS)-3a,4,5,6,7,7a-hexahydro-1H-benzo[d]imidazol-2-yl)thio)-1-morpholinobutan-1-one]

same assay, conditions: JJN3 cells, 24 hr treatment

Structure (SMILES)	cell death by annexin V/PI
O=C(CSC1=N[C@@H]2CCCC[C@H]2N1)N1CCOCC1 (racemic) [TTC-01, (±)-trans-2-((2-morpholino-2-oxoethyl)thio)-3a,4,5,6,7,7a-hexahydro-1H-benzo[d]imidazol-3-ium chloride]	induces cell death
O=C(CSC1=N[C@@H]2CCCC[C@@H]2N1)N1CCOCC1 [TTC-02, cis-2-((2-morpholino-2-oxoethyl)thio)-3a,4,5,6,7,7a-hexahydro-1H-benzo[d]imidazol-3-ium chloride]	does not induce cell death
O=C(CSc1nc2ccccc2[nH]1)N1CCOCC1 [TTC-21, 2-((1H-benzo[d]imidazol-2-yl)thio)-1-morpholinoethan-1-one]	reduced activity
O=C(CSc1ncc[nH]1)N1CCOCC1 [TTC-22, 2-((1H-imidazol-2-yl)thio)-1-morpholinoethan-1-one]	reduced activity
O=C(CSc1nc2c([nH]1)CCCC2)N1CCOCC1 [TTC-23, 1-morpholino-2-((4,5,6,7-tetrahydro-1H-benzo[d]imidazol-2-yl)thio)ethan-1-one]	reduced activity
